Where only a bound is given, the exact number is not on record here.

IC50 data for 20 compounds are collected here from US20240150340A1, “CDK Inhibitors And Their Use As Pharmaceuticals” (Prelude Therapeutics Incorporated, priority 2022, published 2024).

One test concerns the target T1, CDK2/Cyclin E2 (Homo sapiens, UniProt P24941).
T1 construct: Recombinant protein complex CDK2/Cyclin E2, expressed from insect cell, was purchased from ProQinase
Description: CDK2/CyclinE2 Enzymatic Activity Assay (TR-FRET). It counts as biochemical. To be noted: ATP 1 mM final, read-out: CDK2_E1 IC50. The procedure, abridged: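 Recombinant insect-cell CDK2/Cyclin E2 (1 nM) phosphorylated ULight-4E-BP1 (50 nM) with 1 mM ATP in HEPES pH 7.4 buffer, after 20 min compound preincubation; MgCl2 (10 mM) started the 45 min reaction at 37° C. Europium anti-phospho-4E-BP1 TR-FRET read; 9-dose IC50 by 4-parameter fit.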
For orientation: TR-FRET usually uses a lanthanide donor and a delayed reading to cut background.

A further test has as its target T2, CDK4/Cyclin D1 (Homo sapiens, UniProt P11802).
T2 construct: purchased ProQinase; host or cells: insect cell
The experiment in a line: CDK4/CyclinD1 Enzymatic Activity Assay (TR-FRET). The test is classed as biochemical. To be noted: ATP 2 mM final, read-out: CDK4_D1 IC50. The procedure, abridged:
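Insect-cell-expressed CDK4/Cyclin D1 (1 nM) with ULight-4E-BP1 (100 nM) and 2 mM ATP in HEPES pH 7.4; 9-dose 3-fold compound series preincubated 20 min, reaction started with 10 mM MgCl2, 45 min at 37° C. Europium anti-P-4E-BP1 TR-FRET read; IC50 from 4-parameter Hill fit.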

A further test has as its system OVCAR3 p-RB. Description: pRB ICW Assay in OVCAR3 Cells. To be noted: Homo sapiens, OVCAR-3, incubated with compound for 2 hours. The test is classed as cell-based. In a few lines: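 OVCAR3 cells were treated 2 h at 37° C. with a 9-point half-log compound series, duplicate wells, with 10 μM reference compound as maximum inhibition. Fixed, permeabilized cells were stained with anti-phospho-RB plus DRAQ5 and imaged at 700/800 nm (In-Cell Western).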

T2 sequence (P11802 whole entry): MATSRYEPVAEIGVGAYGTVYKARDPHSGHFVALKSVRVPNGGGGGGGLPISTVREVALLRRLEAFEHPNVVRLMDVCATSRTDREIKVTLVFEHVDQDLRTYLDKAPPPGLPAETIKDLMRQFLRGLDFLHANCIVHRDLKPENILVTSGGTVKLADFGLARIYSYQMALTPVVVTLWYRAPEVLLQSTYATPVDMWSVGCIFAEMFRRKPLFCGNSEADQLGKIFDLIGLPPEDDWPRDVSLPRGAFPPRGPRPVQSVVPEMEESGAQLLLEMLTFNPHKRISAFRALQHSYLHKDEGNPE
T2 sequence (P24385 whole entry partner): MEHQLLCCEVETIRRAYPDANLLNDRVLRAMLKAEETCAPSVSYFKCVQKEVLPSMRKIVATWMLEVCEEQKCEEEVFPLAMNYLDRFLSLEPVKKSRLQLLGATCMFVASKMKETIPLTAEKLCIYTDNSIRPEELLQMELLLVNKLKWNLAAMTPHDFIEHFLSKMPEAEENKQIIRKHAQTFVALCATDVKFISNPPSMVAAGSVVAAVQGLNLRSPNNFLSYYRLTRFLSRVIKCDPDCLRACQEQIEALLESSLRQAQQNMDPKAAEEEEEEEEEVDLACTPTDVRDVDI

Turning to `CS(=O)(=O)N1CC[C@@H](Nc2ncc(C(F)(F)F)c(-c3cc(C(N)=O)cs3)n2)[C@H](F)C1` [Example 6, 5-(2-(((3R,4R)-3-fluoro-1-(methylsulfonyl)piperidin-4-yl)amino)-5-(trifluoromethyl)pyrimidin-4-yl)thiophene-3-carboxamide], the IC50 at CDK2/Cyclin E2, on CDK4/Cyclin D1 and with OVCAR3 p-RB was no more than 100 nM in each case.

`Cn1cnc(S(=O)(=O)N2CC[C@H](Nc3ncc(C(F)(F)F)c(-c4cc(C(N)=O)c(CC(C)(C)O)s4)n3)[C@H](F)C2)c1` [Example 47, 5-(2-(((3R,4S)-3-fluoro-1-((1-methyl-1H-imidazol-4-yl)sulfonyl)piperidin-4-yl)amino)-5-(trifluoromethyl)pyrimidin-4-yl)-2-(2-hydroxy-2-methylpropyl)thiophene-3-carboxamide]: the IC50 (in general, the midpoint of a concentration-inhibition curve) is no more than 100 nM at CDK2/Cyclin E2, no more than 100 nM on CDK4/Cyclin D1 and 100 to 500 nM in the test on OVCAR3 p-RB.

For the compound `CC(O)c1sc(-c2nc(N[C@@H]3CCN(S(=O)(=O)c4cn(C)cn4)C[C@H]3F)ncc2C(F)(F)F)cc1C#N` (stereo partly drawn) [Example 37, 5-(2-(((3R,4R)-3-fluoro-1-((1-methyl-1H-imidazol-4-yl)sulfonyl)piperidin-4-yl)amino)-5-(trifluoromethyl)pyrimidin-4-yl)-2-(1-hydroxyethyl)thiophene-3-carbonitrile], the half-inhibitory concentration (IC50) at CDK2/Cyclin E2, on CDK4/Cyclin D1 and in the test on OVCAR3 p-RB was no more than 100 nM throughout.

`Cc1sc(-c2nc(NC3CCN(S(C)(=O)=O)CC3)ncc2C(F)(F)F)cc1C(F)F` [Example 80, 4-(4-(difluoromethyl)-5-methylthiophen-2-yl)-N-(1-(methylsulfonyl)piperidin-4-yl)-5-(trifluoromethyl)pyrimidin-2-amine]: the figures for the IC50 on CDK2/Cyclin E2, at CDK4/Cyclin D1 and in the test with OVCAR3 p-RB were no more than 100 nM, no more than 100 nM and 100 to 500 nM, respectively.

Take `Cn1cc(S(=O)(=O)N2CC[C@H](Nc3ncc(C(F)(F)F)c(-c4ncc(CC(C)(C)O)s4)n3)[C@H](F)C2)cn1` [Example 109, 1-(2-(2-(((3R,4S)-3-fluoro-1-((1-methyl-1H-pyrazol-4-yl)sulfonyl)piperidin-4-yl)amino)-5-(trifluoromethyl)pyrimidin-4-yl)thiazol-5-yl)-2-methylpropan-2-ol]: the IC50 on CDK2/Cyclin E2, at CDK4/Cyclin D1 and in the test on OVCAR3 p-RB was no more than 100 nM throughout.

For `Cc1cnc(-c2nc(NC3CCN(S(C)(=O)=O)CC3)ncc2C(F)(F)F)s1` [Example 65, N-(1-(methylsulfonyl)piperidin-4-yl)-4-(5-methylthiazol-2-yl)-5-(trifluoromethyl)pyrimidin-2-amine], the figures for the IC50 on CDK2/Cyclin E2, at CDK4/Cyclin D1 and with OVCAR3 p-RB were no more than 100 nM, no more than 100 nM and 100 to 500 nM, respectively.

For the compound `C[C@@H]1CN(S(C)(=O)=O)CC[C@@H]1Nc1ncc(C(F)(F)F)c(-c2cc(C(N)=O)c(CC(C)(C)O)s2)n1` [Example 43, 2-(2-hydroxy-2-methylpropyl)-5-(2-(((3R,4S)-3-methyl-1-(methylsulfonyl)piperidin-4-yl)amino)-5-(trifluoromethyl)pyrimidin-4-yl)thiophene-3-carboxamide], the IC50 was no more than 100 nM on CDK2/Cyclin E2, 100 to 500 nM on CDK4/Cyclin D1 and greater than 500 nM in the test on OVCAR3 p-RB.

Turning to `Cc1sc(-c2nc(N[C@@H]3CCN(S(=O)(=O)c4cnn(C)c4)C[C@H]3F)ncc2C(F)(F)F)cc1C(N)=O` [Example 17, 5-(2-(((3R,4R)-3-fluoro-1-((1-methyl-1H-pyrazol-4-yl)sulfonyl)piperidin-4-yl)amino)-5-(trifluoromethyl)pyrimidin-4-yl)-2-methylthiophene-3-carboxamide], the IC50 at CDK2/Cyclin E2, on CDK4/Cyclin D1 and with OVCAR3 p-RB was no more than 100 nM throughout.

In the case of `Cc1sc(-c2nc(NC3CCN(S(=O)(=O)c4cnc(N)s4)CC3)ncc2C(F)(F)F)cc1C#N` [Example 93, 5-(2-((1-((2-Aminothiazol-5-yl)sulfonyl)piperidin-4-yl)amino)-5-(trifluoromethyl)pyrimidin-4-yl)-2-methylthiophene-3-carbonitrile], the results for the IC50 at CDK2/Cyclin E2, on CDK4/Cyclin D1 and with OVCAR3 p-RB were no more than 100 nM, 100 to 500 nM and 100 to 500 nM, respectively.

Consider `Cn1cnc(S(=O)(=O)N2CCC(Nc3ncc(C(F)(F)F)c(-c4cc(C(N)=O)c(CC(C)(C)O)s4)n3)CC2)c1` [Example 45, 2-(2-hydroxy-2-methylpropyl)-5-(2-((1-((1-methyl-1H-imidazol-4-yl)sulfonyl)piperidin-4-yl)amino)-5-(trifluoromethyl)pyrimidin-4-yl)thiophene-3-carboxamide], for which the IC50 at CDK2/Cyclin E2, on CDK4/Cyclin D1 and with OVCAR3 p-RB was no more than 100 nM throughout.

As to `Cc1sc(-c2nc(N[C@H]3CCN(S(=O)(=O)c4cnn(C)c4)C[C@H]3C)ncc2C(F)(F)F)cc1C(N)=O` [Example 23, 2-methyl-5-(2-(((3R,4S)-3-methyl-1-((1-methyl-1H-pyrazol-4-yl)sulfonyl)piperidin-4-yl)amino)-5-(trifluoromethyl)pyrimidin-4-yl)thiophene-3-carboxamide], the IC50 at CDK2/Cyclin E2, at CDK4/Cyclin D1 and with OVCAR3 p-RB was no more than 100 nM throughout.

With `CC(O)c1sc(-c2nc(N[C@H]3CCN(S(=O)(=O)c4cnn(C)c4)C[C@H]3F)ncc2C(F)(F)F)cc1C#N` (stereo partly drawn) [Example 34, 5-(2-(((3R,4S)-3-fluoro-1-((1-methyl-1H-pyrazol-4-yl)sulfonyl)piperidin-4-yl)amino)-5-(trifluoromethyl)pyrimidin-4-yl)-2-(1-hydroxyethyl)thiophene-3-carbonitrile], the IC50 at CDK2/Cyclin E2, at CDK4/Cyclin D1 and in the test on OVCAR3 p-RB was no more than 100 nM each time.

Turning to `Cc1sc(-c2nc(NC3CCN(S(=O)(=O)c4c[nH]cn4)CC3)ncc2C(F)(F)F)cc1C#N` [Example 55, 5-(2-((1-((1H-imidazol-4-yl)sulfonyl)piperidin-4-yl)amino)-5-(trifluoromethyl)pyrimidin-4-yl)-2-methylthiophene-3-carbonitrile], the IC50 was no more than 100 nM at CDK2/Cyclin E2, no more than 100 nM at CDK4/Cyclin D1 and 100 to 500 nM with OVCAR3 p-RB.

`Cc1sc(-c2nc(N[C@H]3CCN(S(C)(=O)=O)C[C@H]3C)ncc2C(F)(F)F)cc1C(N)=O` [Example 52, 2-methyl-5-(2-(((3R,4S)-3-methyl-1-(methylsulfonyl)piperidin-4-yl)amino)-5-(trifluoromethyl)pyrimidin-4-yl)thiophene-3-carboxamide]: the values for the IC50 at CDK2/Cyclin E2, on CDK4/Cyclin D1 and with OVCAR3 p-RB were no more than 100 nM, 100 to 500 nM and 100 to 500 nM, respectively.

As for `Cc1sc(-c2nc(N[C@H]3CCN(S(=O)(=O)c4cnc(N)s4)C[C@H]3C)ncc2C(F)(F)F)cc1C#N` [Example 94, 5-(2-(((3R,4S)-1-((2-aminothiazol-5-yl)sulfonyl)-3-methylpiperidin-4-yl)amino)-5-(trifluoromethyl)pyrimidin-4-yl)-2-methylthiophene-3-carbonitrile], the values for the half-maximal inhibitory concentration (IC50) on CDK2/Cyclin E2, on CDK4/Cyclin D1 and with OVCAR3 p-RB were no more than 100 nM, greater than 500 nM and 100 to 500 nM, respectively.

On to `Cc1sc(-c2nc(NC3CCN(S(=O)(=O)c4cn(C)cn4)CC3)ncc2C(F)(F)F)cc1C#N` [Example 1, 2-Methyl-5-[2-[[1-(1-methylimidazol-4-yl)sulfonylpiperidin-4-yl]amino]-5-(trifluoromethyl)pyrimidin-4-yl]thiophene-3-carbonitrile], for which the IC50 on CDK2/Cyclin E2, at CDK4/Cyclin D1 and in the test on OVCAR3 p-RB was no more than 100 nM throughout.

With `C[C@@H]1CN(S(C)(=O)=O)CC[C@@H]1Nc1ncc(C(F)(F)F)c(-c2ncc(C(C)(C)O)s2)n1` [Example 132, 2-(2-(2-(((3R,4S)-3-methyl-1-(methylsulfonyl)piperidin-4-yl)amino)-5-(trifluoromethyl)pyrimidin-4-yl)thiazol-5-yl)propan-2-ol], the IC50 at CDK2/Cyclin E2 was no more than 100 nM; on CDK4/Cyclin D1 it was 100 to 500 nM; in the test with OVCAR3 p-RB, greater than 500 nM.

In the case of `Cn1cnc(S(=O)(=O)N2CCC(Nc3ncc(C(F)(F)F)c(-c4cc(C#N)c(CC(C)(C)O)s4)n3)CC2)c1` [Example 39, 2-(2-hydroxy-2-methylpropyl)-5-(2-((1-((1-methyl-1H-imidazol-4-yl)sulfonyl)piperidin-4-yl)amino)-5-(trifluoromethyl)pyrimidin-4-yl)thiophene-3-carbonitrile], the IC50 on CDK2/Cyclin E2, at CDK4/Cyclin D1 and in the test on OVCAR3 p-RB was no more than 100 nM throughout.

For `C[C@@H]1CN(S(=O)(=O)c2cnn(C)c2)CC[C@@H]1Nc1ncc(C(F)(F)F)c(-c2ncc(C(C)(C)O)s2)n1` [Example 100, 2-(2-(2-(((3R,4S)-3-methyl-1-((1-methyl-1H-pyrazol-4-yl)sulfonyl)piperidin-4-yl)amino)-5-(trifluoromethyl)pyrimidin-4-yl)thiazol-5-yl)propan-2-ol], the IC50 at CDK2/Cyclin E2, at CDK4/Cyclin D1 and in the test with OVCAR3 p-RB was no more than 100 nM throughout.

Turning to `CC(O)c1sc(-c2nc(NC3CCN(S(=O)(=O)c4cnn(C)c4)CC3)ncc2C(F)(F)F)cc1C#N` (stereo not drawn) [Example 90, 2-(1-Hydroxyethyl)-5-(2-((1-((1-methyl-1H-pyrazol-4-yl)sulfonyl)piperidin-4-yl)amino)-5-(trifluoromethyl)pyrimidin-4-yl)thiophene-3-carbonitrile], the IC50 at CDK2/Cyclin E2, on CDK4/Cyclin D1 and in the test with OVCAR3 p-RB was no more than 100 nM in each case.
